{"source": "paper PMC5218480", "about": "(PLoS ONE, 2017)", "test_system": "MV-4-11 cells", "assay": "Gene expression microarray analysis (Affymetrix PrimeView) and GSEA", "type": "cell-based, human", "parameters": "RFU PODN (11730768_x_at) / Fold change /veh PODN (11730768_x_at) / RFU LINC00158 (11744669_a_at) / Fold change /veh LINC00158 (11744669_a_at) / RFU DUSP10 (11751237_a_at) / Fold change /veh DUSP10 (11751237_a_at) / RFU ID3 (11757404_x_at) / Fold change /veh ID3 (11757404_x_at) / RFU PLEKHG5 (11737974_s_at) / Fold change /veh PLEKHG5 (11737974_s_at) / RFU LRRC4B (11730491_at) / Fold change /veh LRRC4B (11730491_at) / RFU GIMAP4 (11747438_a_at) / Fold change /veh GIMAP4 (11747438_a_at) / RFU KRT8 (11758183_x_at) / Fold change /veh KRT8 (11758183_x_at) / RFU CNN1 (11734310_a_at) / Fold change /veh CNN1 (11734310_a_at) / RFU VPS37D (11726825_at) / Fold change /veh VPS37D (11726825_at) / RFU C10orf10 (11716522_x_at) / Fold change /veh C10orf10 (11716522_x_at) / RFU KIR2DL2 /// KIR2DL4 /// KIR2DL5A /// KIR2DL5B /// KIR2DS1 /// KIR2DS2 /// KIR2DS3 /// KIR2DS4 /// KIR3DL3 /// KIR3DL3 /// KIR3DS1 (11738374_at) / Fold change /veh KIR2DL2 /// KIR2DL4 /// KIR2DL5A /// KIR2DL5B /// KIR2DS1 /// KIR2DS2 /// KIR2DS3 /// KIR2DS4 /// KIR3DL3 /// KIR3DL3 /// KIR3DS1 (11738374_at) / RFU C1QL1 (11718748_at) / Fold change /veh C1QL1 (11718748_at) / RFU TMPRSS4 (11747572_a_at) / Fold change /veh TMPRSS4 (11747572_a_at) / RFU HAMP (11756126_x_at) / Fold change /veh HAMP (11756126_x_at) / RFU RNFT2 (11725882_a_at) / Fold change /veh RNFT2 (11725882_a_at) / RFU NR4A2 (11747474_a_at) / Fold change /veh NR4A2 (11747474_a_at) / RFU ABCC12 (11746883_a_at) / Fold change /veh ABCC12 (11746883_a_at) / RFU TMEM136 (11760407_x_at) / Fold change /veh TMEM136 (11760407_x_at) / RFU CLDN22 /// WWC2 (11732394_at) / Fold change /veh CLDN22 /// WWC2 (11732394_at) / RFU HLA-DPB1 (11760878_x_at) / Fold change /veh HLA-DPB1 (11760878_x_at) / RFU SPINT1 (11716480_a_at) / Fold change /veh SPINT1 (11716480_a_at) / RFU GAP43 (11754022_s_at) / Fold change /veh GAP43 (11754022_s_at) / RFU A4GNT (11735810_at) / Fold change /veh A4GNT (11735810_at) / RFU PRB3 (11715151_x_at) / Fold change /veh PRB3 (11715151_x_at) / RFU TUBB4B (11761932_at) / Fold change /veh TUBB4B (11761932_at) / RFU CAPN14 (11732068_a_at) / Fold change /veh CAPN14 (11732068_a_at) / RFU TMCC2 (11721928_a_at) / Fold change /veh TMCC2 (11721928_a_at) / RFU IRGQ (11745062_a_at) / Fold change /veh IRGQ (11745062_a_at) / RFU FAM174B (11720279_a_at) / Fold change /veh FAM174B (11720279_a_at) / RFU TMPRSS4 (11748680_a_at) / Fold change /veh TMPRSS4 (11748680_a_at) / RFU FAM212B (11763350_a_at) / Fold change /veh FAM212B (11763350_a_at) / RFU PLEKHG5 (11743358_a_at) / Fold change /veh PLEKHG5 (11743358_a_at) / RFU ZSCAN30 (11745921_a_at) / Fold change /veh ZSCAN30 (11745921_a_at) / RFU CMKLR1 (11741424_a_at) / Fold change /veh CMKLR1 (11741424_a_at) / RFU LOC101060620 /// MAPK8IP1 (11723275_at) / Fold change /veh LOC101060620 /// MAPK8IP1 (11723275_at) / RFU SPTSSB (11747773_x_at) / Fold change /veh SPTSSB (11747773_x_at) / RFU PRSS12 (11739890_at) / Fold change /veh PRSS12 (11739890_at) / RFU BIN1 (11741810_x_at) / Fold change /veh BIN1 (11741810_x_at) / RFU WNT11 (11732464_a_at) / Fold change /veh WNT11 (11732464_a_at) / RFU C10orf10 (11716521_a_at) / Fold change /veh C10orf10 (11716521_a_at) / RFU C5orf56 (11738089_at) / Fold change /veh C5orf56 (11738089_at) / RFU CYB561 (11721691_x_at) / Fold change /veh CYB561 (11721691_x_at) / RFU ANKRD19P (11752326_a_at) / Fold change /veh ANKRD19P (11752326_a_at) / RFU OR2T12 /// OR2T33 /// OR2T8 (11738714_s_at) / Fold change /veh OR2T12 /// OR2T33 /// OR2T8 (11738714_s_at) / RFU VCAN (11748164_a_at) / Fold change /veh VCAN (11748164_a_at) / RFU JSRP1 (11732532_at) / Fold change /veh JSRP1 (11732532_at) / RFU KRTAP10-11 (11738290_x_at) / Fold change /veh KRTAP10-11 (11738290_x_at) / RFU MYO3A (11730013_a_at) / Fold change /veh MYO3A (11730013_a_at) / RFU EBF3 (11725865_a_at) / Fold change /veh EBF3 (11725865_a_at) / RFU CAMK2N1 (11719241_x_at) / Fold change /veh CAMK2N1 (11719241_x_at) / RFU C5orf56 (11738088_a_at) / Fold change /veh C5orf56 (11738088_a_at) / RFU OLFML3 (11715873_a_at) / Fold change /veh OLFML3 (11715873_a_at) / RFU LOC100653217 /// NTM (11731650_a_at) / Fold change /veh LOC100653217 /// NTM (11731650_a_at) / RFU MAPK11 (11762145_a_at) / Fold change /veh MAPK11 (11762145_a_at) / RFU FIZ1 (11724087_x_at) / Fold change /veh FIZ1 (11724087_x_at) / RFU OASL (11726364_x_at) / Fold change /veh OASL (11726364_x_at) / RFU SOX15 (11748057_x_at) / Fold change /veh SOX15 (11748057_x_at) / RFU CD79A (11719716_a_at) / Fold change /veh CD79A (11719716_a_at) / RFU HIST1H1D (11736915_at) / Fold change /veh HIST1H1D (11736915_at) / RFU CASKIN2 (11723855_a_at) / Fold change /veh CASKIN2 (11723855_a_at) / RFU LOC730098 (11760151_x_at) / Fold change /veh LOC730098 (11760151_x_at) / RFU OR4N2 (11742367_at) / Fold change /veh OR4N2 (11742367_at) / RFU PRRT2 (11749266_a_at) / Fold change /veh PRRT2 (11749266_a_at) / RFU SNX32 (11753110_a_at) / Fold change /veh SNX32 (11753110_a_at) / RFU CDHR5 (11726645_a_at) / Fold change /veh CDHR5 (11726645_a_at) / RFU RCAN1 (11760418_a_at) / Fold change /veh RCAN1 (11760418_a_at) / RFU FAM167A (11723789_a_at) / Fold change /veh FAM167A (11723789_a_at) / RFU FAM26E (11764081_at) / Fold change /veh FAM26E (11764081_at) / RFU ISYNA1 (11749810_s_at) / Fold change /veh ISYNA1 (11749810_s_at) / RFU ACY1 (11761880_at) / Fold change /veh ACY1 (11761880_at) / RFU 11764098_at / Fold change /veh 11764098_at / RFU SAMD14 (11745864_x_at) / Fold change /veh SAMD14 (11745864_x_at) / RFU NPB (11741838_a_at) / Fold change /veh NPB (11741838_a_at) / RFU TMPRSS6 (11731388_a_at) / Fold change /veh TMPRSS6 (11731388_a_at) / RFU KRTAP10-2 (11738614_at) / Fold change /veh KRTAP10-2 (11738614_at) / RFU ARHGAP8 /// PRR5-ARHGAP8 (11727945_x_at) / Fold change /veh ARHGAP8 /// PRR5-ARHGAP8 (11727945_x_at) / RFU KRTAP5-7 /// NADSYN1 (11734609_at) / Fold change /veh KRTAP5-7 /// NADSYN1 (11734609_at) / RFU RASL12 (11751679_a_at) / Fold change /veh RASL12 (11751679_a_at) / RFU CDKN2B (11736163_a_at) / Fold change /veh CDKN2B (11736163_a_at) / RFU PRF1 (11729649_at) / Fold change /veh PRF1 (11729649_at) / RFU, ZNF638 /// ZNF638-IT1 / Fold change vs veh, ZNF638 /// ZNF638-IT1 / RFU, PANK3 / Fold change vs veh, PANK3 / RFU, SH3YL1 / Fold change vs veh, SH3YL1 / RFU, ZEB2 / Fold change vs veh, ZEB2 / RFU, NRIP1 / Fold change vs veh, NRIP1 / RFU, PTTG1IP / Fold change vs veh, PTTG1IP / RFU, CAPN2 / Fold change vs veh, CAPN2 / RFU, MED14 / Fold change vs veh, MED14 / RFU, SNORA58 / Fold change vs veh, SNORA58 / RFU, C1orf63 / Fold change vs veh, C1orf63 / RFU, LRRFIP1 / Fold change vs veh, LRRFIP1 / RFU, NDUFAF7 / Fold change vs veh, NDUFAF7 / RFU, SLC12A2 / Fold change vs veh, SLC12A2 / RFU, IBTK / Fold change vs veh, IBTK / RFU, ESF1 / Fold change vs veh, ESF1 / Fold change vs veh, TMEM50B / RFU, TAOK1 / Fold change vs veh, TAOK1 / RFU, ACBD3 / Fold change vs veh, ACBD3 / RFU, TMA16 / Fold change vs veh, TMA16 / RFU, RWDD3 / Fold change vs veh, RWDD3 / RFU, BCAT1 / Fold change vs veh, BCAT1 / RFU, EDEM3 / Fold change vs veh, EDEM3 / RFU, TMEM33 / Fold change vs veh, TMEM33 / RFU, WDR75 / Fold change vs veh, WDR75 / RFU, AHCTF1 / Fold change vs veh, AHCTF1 / RFU, TFRC / Fold change vs veh, TFRC / RFU, ZDHHC17 / Fold change vs veh, ZDHHC17 / RFU, NOM1 / Fold change vs veh, NOM1 / RFU, ARL8B / Fold change vs veh, ARL8B / RFU, ZBTB11 / Fold change vs veh, ZBTB11 / RFU, TAMM41 / Fold change vs veh, TAMM41 / RFU, KIAA1704 /// LOC100996395 / Fold change vs veh, KIAA1704 /// LOC100996395 / RFU, ING1 / Fold change vs veh, ING1 / RFU, TRMT61B / Fold change vs veh, TRMT61B / RFU, FUBP3 / Fold change vs veh, FUBP3 / RFU, TP53 / Fold change vs veh, TP53 / RFU, TNKS2 / Fold change vs veh, TNKS2 / RFU, ZFP14 / Fold change vs veh, ZFP14 / RFU, ACTR2 / Fold change vs veh, ACTR2 / RFU, PPP3R1 / Fold change vs veh, PPP3R1 / RFU, PIK3R1 / Fold change vs veh, PIK3R1 / RFU, HNRNPA1 / Fold change vs veh, HNRNPA1 / RFU, RNF170 / Fold change vs veh, RNF170 / RFU, ZNF28 / Fold change vs veh, ZNF28 / RFU, RNGTT / Fold change vs veh, RNGTT / RFU, OGT / Fold change vs veh, OGT / RFU, BRD1 / Fold change vs veh, BRD1 / RFU, MARS / Fold change vs veh, MARS / RFU, ZNF655 / Fold change vs veh, ZNF655 / RFU, FAHD1 / Fold change vs veh, FAHD1 / RFU, BDP1 / Fold change vs veh, BDP1 / RFU, LRRCC1 / Fold change vs veh, LRRCC1 / RFU, ARID1A / Fold change vs veh, ARID1A / RFU, ZNF146 / Fold change vs veh, ZNF146 / RFU, ZNF330 / Fold change vs veh, ZNF330 / RFU, GPN3 / Fold change vs veh, GPN3 / RFU, C9orf123 / Fold change vs veh, C9orf123 / RFU, N4BP2L2 / Fold change vs veh, N4BP2L2 / RFU, ARFIP1 / Fold change vs veh, ARFIP1 / RFU, FAM179B / Fold change vs veh, FAM179B / RFU, BCL10 / Fold change vs veh, BCL10 / RFU, UHRF1BP1L / Fold change vs veh, UHRF1BP1L / RFU, BET1 / Fold change vs veh, BET1 / RFU, CNOT2 / Fold change vs veh, CNOT2 / RFU, ZNF268 / Fold change vs veh, ZNF268 / Fold change vs veh, ZNF507 / RFU, DGCR2 / Fold change vs veh, DGCR2 / RFU, WDSUB1 / Fold change vs veh, WDSUB1 / Fold change vs veh, HSP90B1 /// MIR3652 / RFU, ADSS / Fold change vs veh, ADSS / RFU, GK / Fold change vs veh, GK / RFU, ZNF148 / Fold change vs veh, ZNF148 / RFU, TAF9 / Fold change vs veh, TAF9 / RFU, SLC1A5 / Fold change vs veh, SLC1A5 / RFU, SLMO2 / Fold change vs veh, SLMO2 / RFU, ABCC4 / Fold change vs veh, ABCC4 / RFU, LOC101060439 /// RAP1B / Fold change vs veh, LOC101060439 /// RAP1B / RFU, RFX7 / Fold change vs veh, RFX7 / RFU, GTPBP10 / Fold change vs veh, GTPBP10 / RFU, CNEP1R1 / Fold change vs veh, CNEP1R1 / RFU, BIVM-ERCC5 /// ERCC5 / Fold change vs veh, BIVM-ERCC5 /// ERCC5 / RFU, ILF3 / Fold change vs veh, ILF3 / RFU 11762660_at / Fold change /veh 11762660_at / RFU VCAN (11757783_s_at) / Fold change /veh VCAN (11757783_s_at) / RFU DDX43 (11728927_at) / Fold change /veh DDX43 (11728927_at) / RFU KRT8 (11758188_x_at) / Fold change /veh KRT8 (11758188_x_at) / RFU NKD1 (11759106_at) / Fold change /veh NKD1 (11759106_at) / RFU SRD5A1 (11742802_a_at) / Fold change /veh SRD5A1 (11742802_a_at) / RFU TPSAB1 /// TPSB2 (11721975_s_at) / Fold change /veh TPSAB1 /// TPSB2 (11721975_s_at) / RFU GSTM3 (11746129_a_at) / Fold change /veh GSTM3 (11746129_a_at) / RFU IL23R (11737362_x_at) / Fold change /veh IL23R (11737362_x_at) / RFU TMEM51 (11727254_a_at) / Fold change /veh TMEM51 (11727254_a_at) / RFU PIWIL2 (11732686_x_at) / Fold change /veh PIWIL2 (11732686_x_at) / RFU ORM1 (11744905_x_at) / Fold change /veh ORM1 (11744905_x_at) / RFU CCDC152 (11743942_at) / Fold change /veh CCDC152 (11743942_at) / RFU ECM1 (11717891_a_at) / Fold change /veh ECM1 (11717891_a_at) / RFU IL23R (11748794_a_at) / Fold change /veh IL23R (11748794_a_at) / RFU TNFAIP8L3 (11732012_x_at) / Fold change /veh TNFAIP8L3 (11732012_x_at) / RFU MBOAT4 (11741988_at) / Fold change /veh MBOAT4 (11741988_at) / RFU 11764193_at / Fold change /veh 11764193_at / RFU TMEM53 (11763286_at) / Fold change /veh TMEM53 (11763286_at) / RFU MAGEB2 (11727129_at) / Fold change /veh MAGEB2 (11727129_at) / RFU TMEM200A (11744735_a_at) / Fold change /veh TMEM200A (11744735_a_at) / RFU CCDC152 (11751479_a_at) / Fold change /veh CCDC152 (11751479_a_at) / RFU FAM211A (11726209_a_at) / Fold change /veh FAM211A (11726209_a_at) / RFU RGS16 (11746705_a_at) / Fold change /veh RGS16 (11746705_a_at) / RFU VCAN (11755009_s_at) / Fold change /veh VCAN (11755009_s_at) / RFU RHOB (11743442_s_at) / Fold change /veh RHOB (11743442_s_at) / RFU RGS16 (11720943_a_at) / Fold change /veh RGS16 (11720943_a_at) / RFU RGS16 (11720944_at) / Fold change /veh RGS16 (11720944_at) / RFU, VPS4B / Fold change vs veh, VPS4B / RFU, CREB1 / Fold change vs veh, CREB1 / RFU, DNAJC13 / Fold change vs veh, DNAJC13 / RFU, GNAQ / Fold change vs veh, GNAQ / RFU, CDK5R1 / Fold change vs veh, CDK5R1 / RFU, ZRANB3 / Fold change vs veh, ZRANB3 / RFU, CUL4A / Fold change vs veh, CUL4A / RFU, CCNY / Fold change vs veh, CCNY / RFU, UFL1 / Fold change vs veh, UFL1 / RFU, COG3 / Fold change vs veh, COG3 / RFU, DIAPH2 / Fold change vs veh, DIAPH2 / RFU, SKA2 / Fold change vs veh, SKA2 / RFU, AFF3 / Fold change vs veh, AFF3 / RFU, LMF1 / Fold change vs veh, LMF1 / RFU, IPO11 / Fold change vs veh, IPO11 / RFU, DFFB / Fold change vs veh, DFFB / RFU, FOXP1 / Fold change vs veh, FOXP1 / RFU, CARD8 / Fold change vs veh, CARD8 / RFU, STRN3 / Fold change vs veh, STRN3 / RFU, ADK / Fold change vs veh, ADK / RFU, RASSF2 / Fold change vs veh, RASSF2 / RFU, WIPF1 / Fold change vs veh, WIPF1 / RFU, LARP1B / Fold change vs veh, LARP1B / RFU, RASA1 / Fold change vs veh, RASA1 / RFU, RB1 / Fold change vs veh, RB1 / RFU, PPFIA1 / Fold change vs veh, PPFIA1 / RFU, MAT2A / Fold change vs veh, MAT2A / RFU, CCT5 / Fold change vs veh, CCT5 / RFU, WDR92 / Fold change vs veh, WDR92 / RFU, CUX1 / Fold change vs veh, CUX1 / RFU, TTC7A / Fold change vs veh, TTC7A / RFU, TMEM135 / Fold change vs veh, TMEM135 / RFU, DEPTOR / Fold change vs veh, DEPTOR / RFU, CPM / Fold change vs veh, CPM / RFU, DNAJB6 / Fold change vs veh, DNAJB6 / RFU, CACNA2D3 / Fold change vs veh, CACNA2D3 / RFU, DTX4 / Fold change vs veh, DTX4 / RFU, TFCP2 / Fold change vs veh, TFCP2 / RFU, GMCL1 /// GMCL1P1 / Fold change vs veh, GMCL1 /// GMCL1P1 / RFU, AEBP2 / Fold change vs veh, AEBP2 / RFU, SNHG1 /// SNORD22 /// SNORD25 /// SNORD26 /// SNORD27 /// SNORD28 /// SNORD29 /// SNORD31 / Fold change vs veh, SNHG1 /// SNORD22 /// SNORD25 /// SNORD26 /// SNORD27 /// SNORD28 /// SNORD29 /// SNORD31 / Fold change (Aza/veh), C12orf56 (ProbeSet 11735607_a_at) / Fold change (ACY-1035/veh), C12orf56 (ProbeSet 11735607_a_at) / Fold change (Aza/veh), FGFR1OP (ProbeSet 11751329_s_at) / Fold change (ACY-1035/veh), FGFR1OP (ProbeSet 11751329_s_at) / Fold change (Aza/veh), VPS36 (ProbeSet 11739960_a_at) / Fold change (ACY-1035/veh), VPS36 (ProbeSet 11739960_a_at) / RFU SYPL1 (11715823_x_at) / Fold change /veh SYPL1 (11715823_x_at) / RFU IGFBP7 (11715501_s_at) / Fold change /veh IGFBP7 (11715501_s_at) / RFU REEP3 (11722064_at) / Fold change /veh REEP3 (11722064_at) / RFU IGLL1 (11728026_x_at) / Fold change /veh IGLL1 (11728026_x_at): dose or concentration left out as unconfirmed", "conditions": "ProbeSet 11747888_a_at; LIST D", "data": [{"smiles": "Nc1ccc(-c2cccs2)cc1NC(=O)c1ccc2c(c1)cc(C1CC1)n2CCN1CCOCC1", "note": "[ACY-1035]", "values": [{"measurement": "Fold change vs veh, SH3YL1", "result": 0.93}]}]}
